Reference: US4843077A, “Isoquinoline derivatives having renal vasodilating properties and/or cardiotonic properties and/or phosphodiesterase inhibiting properties” (Ortho Pharmaceutical Corporation, priority 1987, dated 1989)
Where two headings read alike, the source gives them in different places. Blank lines part the entries; values can stand above or below the compound they belong to.

Experiments:
cardiac muscle = assay: Acute in vivo cardiotonic activity in anesthetized dogs; design: species or system adult mongrel dogs; conditions: anesthetized dog, relative to control
Method: The acute in vivo cardiotonic activity of compounds prepared according to the present invention was determined according to a modification of the procedure described by Alousi et al., Circ. Res., 45, 666 (1979).
In particular, adult mongrel dogs were anesthetized with sodium pentobarbital and were artificially respired. Arterial pressure was monitored via a femoral artery, and the pulse pressure was used to trigger a cardiotachometer for heart rate. Left ventricular pressure was determined with a Millar catheter, and dP/dT (the change in ventricular pressure with time) was derived. Cardiac output was determined by measuring ascending aortic blood flow with an electromagnetic flow probe, and myocardial contractile foorce was measured with a Walton Brodie strain gauge sutured to the right ventricle. Lead II EKG was also recorded.
A standard dose (10 μg/kg/min) of dopamine was administered to assess myocardial responsiveness.
Compounds of the invention were administered by intravenous infusion and the effects on cardiovascular parameters were determined.
Dose related effects of the test compound on heart rate (HR), maximum change in left ventricular pressure with time (dP/dT), percent change in cardiac force (CF) and the change in mean arterial blood pressure (MABP) were compared to pretreatment control values and expressed as a percent change.

[1] = target: phosphodiesterase fraction III; assay: Inhibition of phosphodiesterase fraction III activity; assay type: biochemical; conditions: cyclic AMP substrate 0.01-1.0 micromolar, pH 7.4, fraction III enzyme from canine heart
renal vasculature = assay: Renal vasodilating activity in anesthetized dogs; assay type: in vivo, adult mongrel dogs; conditions: Canis lupus familiaris
Method: The following procedure is a variation of the assay described in that report.
Adult mongrel dogs were anesthetized and surgically prepared for electromagnetic measurement of renal artery blood flow. A carotid artery was cannulated for measuring arterial blood pressure and drugs were administered intravenously or intraarterially (via the renal artery). Heart rate was monitored with a cardiotachometer. Renal vascular resistance was calcualted as the ratio of mean arterial blood pressure to renal artery blood flow. Dopamine was infused intravenously at 3 μg/kg/min for ten minutes (at an infusion rate of about 1 ml/min) to determine responsiveness of each dog to renal dopamine receptor stimulation. Cumulative dose-response data were obtained by infusing a compound of this invention at progressively increasing (usually three-fold) infusion rates, each dose being infused for five minutes. The maximum percent change from pre-drug control in renal artery blood flow (or in renal vascular resistance) was determined for each infusion dose.

[2] = total dose 1.875 mpk iv infusion
[3] = iv, read-out: RVR, percent change in renal vascular resistance
[4] = anesthetized dog, dose 1.2 mpk iv, relative to control, read-out: HR, percent change in heart rate
[5] = anesthetized dog, dose 1.2 mpk iv, relative to control, read-out: MABP, percent change in mean arterial blood pressure
[6] = anesthetized dog, dose 1.2 mpk iv, relative to control, read-out: RBF, percent change in renal blood flow
[7] = anesthetized dog, dose 1.2 mpk iv, relative to control, read-out: RVR, percent change in renal vascular resistance
[8] = iv, read-out: HR, percent change in heart rate
[9] = anesthetized dog, dose 6.2 mpk iv, relative to control, read-out: HR, percent change in heart rate
[10] = anesthetized dog, dose 6.2 mpk iv, relative to control, read-out: RBF, percent change in renal blood flow
[11] = anesthetized dog, dose 6.2 mpk iv, relative to control, read-out: MABP, percent change in mean arterial blood pressure
[12] = total dose 1.938 mpk iv infusion

SMILES: CCN(CC)CCNc1nc(C)c2cc(OC)c(OC)cc2c1[N+](=O)[O-] [Cmpd 6]
CF, percent change in cardiac force (cardiac muscle; [2]): 40 percent change
HR, percent change in heart rate (cardiac muscle; [2]): -6 percent change
MABP, percent change in mean arterial blood pressure (cardiac muscle; [2]): 4 percent change
dP/dt, maximum percent change in left ventricular pressure with time (cardiac muscle; [2]): 52 percent change

IC50 [1]: 300 µM
SMILES: CCN(CCN(C)C)c1nc(C)c2cc(OC)c(OC)cc2c1[N+](=O)[O-] [Cmpd 16]

SMILES: C=CCNC(=O)Nc1c(N(C)C)nc(C)c2cc(OC)c(OC)cc12 [Cmpd 30]
IC50 [1]: 280 µM
change in vivo at 1.2 mg/kg (renal vasculature; [3]): -9%
change in vivo at 1.2 mg/kg (renal vasculature; [4]): 3%
change in vivo at 1.2 mg/kg (renal vasculature; [5]): 1%
change in vivo at 1.2 mg/kg (renal vasculature; [6]): 12%

IC50 [1]: 10 µM
SMILES: COc1cc2c(C)nc(N(C)C)c([N+](=O)[O-])c2cc1OC [Cmpd 13, 6,7-Dimethoxy-1-methyl-3-(N,N-dimethyl)amino-4-nitroisoquinoline]
change in vivo at 1.2 mg/kg (renal vasculature; [4]): 17%
change in vivo at 1.2 mg/kg (renal vasculature; [5]): 16%
change in vivo at 1.2 mg/kg (renal vasculature; [6]): 60%
change in vivo at 1.2 mg/kg (renal vasculature; [7]): -23%

IC50 [1]: 300 µM
SMILES: CCCCNC(=O)Nc1c(N(C)C)nc(C)c2cc(OC)c(OC)cc12 [Cmpd 28]
CF, percent change in cardiac force (cardiac muscle; [2]): 20 percent change
HR, percent change in heart rate (cardiac muscle; [2]): 2 percent change
MABP, percent change in mean arterial blood pressure (cardiac muscle; [2]): 2 percent change
dP/dt, maximum percent change in left ventricular pressure with time (cardiac muscle; [2]): 16 percent change

SMILES: COc1cc2c(C)nc(NCCN3CCN(c4ccccc4OC)CC3)c([N+](=O)[O-])c2cc1OC [Cmpd 8]
change in vivo at 0.3 mg/kg (renal vasculature; [8]): -6%
change in vivo at 0.3 mg/kg (renal vasculature; anesthetized dog, dose 0.3 mpk iv, relative to control, read-out: MABP, percent change in mean arterial blood pressure): -20%
change in vivo at 0.3 mg/kg (renal vasculature; anesthetized dog, dose 0.3 mpk iv, relative to control, read-out: RBF, percent change in renal blood flow): 10%
change in vivo at 0.3 mg/kg (renal vasculature; anesthetized dog, dose 0.3 mpk iv, relative to control, read-out: RVR, percent change in renal vascular resistance): -27%

IC50 [1]: 14 µM
SMILES: COc1cc2c(C)nc(N(C)C)c(N)c2cc1OC [Cmpd 26, 4-Amino-6,7-dimethoxy-3-(N,N-dimethyl)amino-1-methylisoquinoline]

SMILES: CCCCSc1nc(C)c2cc(OC)c(OC)cc2c1[N+](=O)[O-] [Cmpd 23, 3-(n-Butylthio)-6,7-dimethoxy-1-methyl-4-nitroisoquinoline]
IC50 [1]: 280 µM
change in vivo at 6.2 mg/kg (renal vasculature; iv, read-out: MABP, percent change in mean arterial blood pressure): -1%
change in vivo at 6.2 mg/kg (renal vasculature; [3]): -15%
change in vivo at 6.2 mg/kg (renal vasculature; [9]): 4%
change in vivo at 6.2 mg/kg (renal vasculature; [10]): 16%

SMILES: CCN(CC)c1nc(C)c2cc(OC)c(OC)cc2c1[N+](=O)[O-] [Cmpd 15]
change in vivo at 6.2 mg/kg (renal vasculature; [9]): 4%
change in vivo at 6.2 mg/kg (renal vasculature; [11]): 0%
change in vivo at 6.2 mg/kg (renal vasculature; [10]): 8%
change in vivo at 6.2 mg/kg (renal vasculature; anesthetized dog, dose 6.2 mpk iv, relative to control, read-out: RVR, percent change in renal vascular resistance): -8%

IC50 [1]: 265 µM
SMILES: CNc1nc(C)c2cc(OC)c(OC)cc2c1[N+](=O)[O-] [Cmpd 2]

SMILES: COc1cc2c(C)nc(Nc3ccccc3)c([N+](=O)[O-])c2cc1OC [Cmpd 12]
IC50 [1]: 250 µM
change in vivo at 6.2 mg/kg (renal vasculature; [3]): -32%
change in vivo at 6.2 mg/kg (renal vasculature; [9]): 2%
change in vivo at 6.2 mg/kg (renal vasculature; [11]): -3%
change in vivo at 6.2 mg/kg (renal vasculature; [10]): 42%

IC50 [1]: 250 µM
SMILES: CCCCNc1nc(C)c2cc(OC)c(OC)cc2c1[N+](=O)[O-] [Cmpd 3, 3-(n-Butylamino)-6,7-dimethoxy-1-methyl-4-nitroisoquinoline]

IC50 [1]: 25 µM
SMILES: CCN(C)c1nc(C)c2cc(OC)c(OC)cc2c1[N+](=O)[O-] [Cmpd 14]
CF, percent change in cardiac force (cardiac muscle; [12]): 21 percent change
HR, percent change in heart rate (cardiac muscle; [12]): 8 percent change
MABP, percent change in mean arterial blood pressure (cardiac muscle; [12]): 6 percent change
dP/dt, maximum percent change in left ventricular pressure with time (cardiac muscle; [12]): 20 percent change

SMILES: COc1cc2c(C)nc(NC3CCN(Cc4ccccc4)CC3)c([N+](=O)[O-])c2cc1OC [Cmpd 11]
IC50 [1]: 120 µM
change in vivo at 6.2 mg/kg (renal vasculature; [3]): -28%
change in vivo at 6.2 mg/kg (renal vasculature; [9]): -16%
change in vivo at 6.2 mg/kg (renal vasculature; [11]): -13%
change in vivo at 6.2 mg/kg (renal vasculature; [10]): 28%

SMILES: COc1cc2c(C)nc(N3CCN(c4ccccc4)CC3)c([N+](=O)[O-])c2cc1OC [Cmpd 19]
IC50 [1]: 150 µM
change in vivo at 6.2 mg/kg (renal vasculature; [3]): -18%
change in vivo at 6.2 mg/kg (renal vasculature; [9]): -5%
change in vivo at 6.2 mg/kg (renal vasculature; [11]): 6%
change in vivo at 6.2 mg/kg (renal vasculature; [10]): 30%

SMILES: CCCCNC(=O)Nc1c(Nc2ccccc2)nc(C)c2cc(OC)c(OC)cc12 [Cmpd 27]
change in vivo at 1.2 mg/kg (renal vasculature; [8]): -6%
change in vivo at 1.2 mg/kg (renal vasculature; [5]): 8%
change in vivo at 1.2 mg/kg (renal vasculature; [6]): 7%
change in vivo at 1.2 mg/kg (renal vasculature; [7]): 1%

IC50 [1]: 220 µM
SMILES: COc1cc2c(C)nc(N(C)c3ccccc3)c([N+](=O)[O-])c2cc1OC [Cmpd 21]

IC50 [1]: 68 µM
SMILES: COc1cc2c(C)nc(Nc3ccccc3)c(N)c2cc1OC [Cmpd 25, 4-amino-6,7-dimethoxy-1-methyl-3-[(N-phenyl)amino]isoquinoline]

SMILES: COc1cc2c(C)nc(NCc3ccccc3)c([N+](=O)[O-])c2cc1OC [Cmpd 4]
change in vivo at 6.2 mg/kg (renal vasculature; [3]): -14%
change in vivo at 6.2 mg/kg (renal vasculature; [9]): -15%
change in vivo at 6.2 mg/kg (renal vasculature; [11]): -6%
change in vivo at 6.2 mg/kg (renal vasculature; [10]): 9%
